# In patent publication US20260286322A1, “PROTEIN TYROSINE P[…] DOMAIN PEPTIDE DIMER FOR NERVOUS SYSTEM REPAIR” (NervGen Pharma Corp., priority 2023, published 2026):
# What was measured:
# [1] = tested on: rat model of thoracic traumatic Spinal Cord Injury (SCI); assay: Basso, Beattie and Bresnahan (BBB) open-field locomotor rating scale in SCI rats; format: in vivo
# Excerpt: The goal of this study is to test the efficacy of a novel peptide dimer (Intracellular Sigma blocking peptide (ISP) dimer according to the present disclosure on behavioral changes in a rat model of thoracic traumatic Spinal Cord Injury (SCI).
# (§1) Adult, female Lewis rats (~160 g on arrival) from Envigo were used as the subjects receiving the treatment in the study. The rats were assigned unique identification numbers (PGI ID and tail marks) and housed in ventilated cages. All rats were examined, handled, and weighed prior to initiation of the study to assure adequate health and suitability. During the course of the study, 12/12 light/dark cycles were maintained. The room temperature was maintained between […] and 23° C. with a relative humidity maintained around 50%. Chow and water were provided adlibitum for the duration of the study. The rats were randomly assigned across treatment groups. Body weights were taken twice a week during the study.
# (§2) Lyophilized Compound 8 was dissolved in saline and injected s.c. at a volume of 500 μl to animal once daily from day 1-day 49 post spinal cord injury.
# (§3) The dose concentration was 0.8 mg/ml, corresponding to 400 μg/rat. After reconstitutions, the solution was aliquoted and kept at −20° C. until dosing.
# 12-13 rats were used in each of the following two groups: • 1. Control group: SCI+Saline • 2. Testing group: SCI+Compound 8 in Saline.
# Spinal cord injury (SCI) was introduced to the rats by surgery using the Infinite Horizon (IH) Impactor (200 kDyn force) described by Scheff et al. 2003. The surgery was performed with aseptic procedures in a designated area under deep anesthesia. Rats were anesthetized with isoflurane (4% for induction, 2% for maintenance), and O2 (300 cm^3/min) mixture. Hair was removed from the surgical site with clippers and the skin wase scrubbed with an antiseptic detergent. To maintain body temperature the animals were placed upon a homoeothermic blanket system. The T8 Vertebra of the rat was located externally, and an incision was made exposing the vertebral column from T6-T11. A laminectomy was performed using a surgical microscope to expose the dorsal spinal cord at the thoracic (T8) vertebral level. The vertebral column was stabilized by clamping the nearest rostral and caudal vertebral processes and the injury was produced using the IH impactor device at a 200 kDyn force. After each lesion the IH graphs and impact data were reviewed and recorded, rats presenting an impact force more than 10% higher or lower than expected and/or any abnormality on the force/displacement impact graphs were excluded from the study. Additionally, animals scoring more than 1 points in the Basso, Beattie and Bresnahan (BBB) score scale at 1 days after SCI were excluded for the study as well.
# Locomotion changes were assessed using an open-field locomotor test (the Ohio State BBB Locomotor Rating Scale developed by Basso, et al. 1995). During each test, rats were observed moving around an empty wading pool for 4 minutes. Movements of joints in the hind limbs, weight support, and coordination between limbs were scored according to the BBB scale. This scale tracks the progressive recovery of hind-limb function following thoracic SCI. The scale can be divided into three parts reflecting the stages of recovery. […] BBB was assessed on days 1, 4 and 7 post injury and then weekly until completion of the study.
# The BBB score scale obtained at day 1 after SCI was used to keep injury consistency. […] At Day 1 after SCI, only animals scoring either 0 (no observable hind-limb movement) or 1 (slight movement of one or two hind-limbs joins) in the BBB scale were enrolled in the study and allocated into treatment groups. The treatments groups were balanced using the BBB score obtained at day 1 after SCI.
# Data was analyzed by analysis of variance (ANOVA) followed by post-hoc comparisons where appropriate. An effect was considered significant if p<0.05. […]
# [2] = Body weights of SCI rats during treatment; format: in vivo, rat; conditions: SCI rats vs saline control, measured until the 13th week
# Description: as §1, §2, §3
# Body weights were taken twice a week for the first 7 weeks after injury and then weekly until endpoint. Health and survival of the animals was evaluated during bladder expressions, body weight and behavioral test, any health concerns were reported and discussed with a veterinarian if needed.
# [3] = week 7 post-SCI, 13 rats in group
substance,measurement,setting,value
TAT-Cys-rodent PTPRS wedge domain homodimer [Compound 8],locomotor performance measured with weekly average BBB scores vs saline alone,"[1]; RM ANOVA, Tukey, p<0.0001 for each compound",significant improvement
same,"improving the BBB scores, compared with Compound 4","[1]; RM ANOVA, Tukey, p=0.0017",more efficacious
same,"recovery of movements of joints in the hind limbs, weight support, and coordination between limbs","[1]; SCI rats, vs saline",promotes the recovery
same,share of rats achieving BBB scores of 10 or above,"[1]; after 70 days post SCI, group (3)",More than half
same,number of rats having BBB scores of 6 to 7,"[1]; day 7 post-SCI, 13 rats in group, 400 μg/rat s.c. once daily",6 rats
same,percentage of rats that achieved a BBB score of 11,[1]; day 77 post-SCI,more than 20%
same,percentage of rats that achieved a BBB score of 11,[1]; day 84 post-SCI,about 50%
same,maximum BBB score in the cohort,[1]; end of study,11
same,number of rats with a BBB score of 10,[1]; [3],6 rats
same,number of rats with a BBB score of 11,[1]; [3],2 rats
same,rats with BBB scores of about 10 or 11,[1]; week 12 post-SCI,8 out of 13
same,effect on body weights,[2],no adverse effects on body weights
